# Results: ChEMBL document CHEMBL3580659, “One-pot multicomponent synthesis of indole incorporated thiazolylcoumarins and their antibacterial, anticancer and DNA cleavage studies” (2015)
# Key:
# Format in all cases: functional
# [1] = test system: MDA-MB-468; assay: Cytotoxicity against human MDA-MB-468 cells assessed as cell growth level at 10 uM after 48 hrs by sulforhodamine B assay
# [2] = test system: HL-60(TB); assay: Cytotoxicity against human HL-60(TB) cells assessed as cell growth level at 100 uM after 48 hrs by sulforhodamine B assay
# [3] = test system: IGROV-1; assay: Cytotoxicity against human IGROV1 cells assessed as cell growth level at 10 uM after 48 hrs by sulforhodamine B assay
# [4] = test system: A498; assay: Cytotoxicity against human A498 cells assessed as cell growth level at 100 nM after 48 hrs by sulforhodamine B assay
# [5] = test system: MDA-MB-435; assay: Cytotoxicity against human MDA-MB-435 cells assessed as cell growth level at 10 uM after 48 hrs by sulforhodamine B assay
# [6] = test system: HOP-62; assay: Cytotoxicity against human HOP62 cells assessed as cell growth level at 100 uM after 48 hrs by sulforhodamine B assay
# [7] = test system: HCT-15; assay: Cytotoxicity against human HCT15 cells assessed as cell growth level at 10 nM after 48 hrs by sulforhodamine B assay
# [8] = test system: HCC 2998; assay: Cytotoxicity against human HCC2998 cells assessed as cell growth level at 1 uM after 48 hrs by sulforhodamine B assay
# [9] = test system: SW-620; assay: Cytotoxicity against human SW620 cells after 48 hrs by sulforhodamine B assay; conditions: SW-620, 48 h
# [10] = test system: SF-295; assay: Cytotoxicity against human SF295 cells assessed as cell growth level at 100 nM after 48 hrs by sulforhodamine B assay
# [11] = test system: MOLT-4; assay: Cytotoxicity against human MOLT4 cells assessed as cell growth level at 1 uM after 48 hrs by sulforhodamine B assay
# [12] = test system: DU-145; assay: Cytotoxicity against human DU145 cells assessed as cell growth level at 10 nM after 48 hrs by sulforhodamine B assay
# [13] = test system: NCI-H23; assay: Cytotoxicity against human NCI-H23 cells assessed as cell growth level at 1 uM after 48 hrs by sulforhodamine B assay
# [14] = test system: HOP-92; assay: Cytotoxicity against human HOP92 cells assessed as cell growth level at 100 uM after 48 hrs by sulforhodamine B assay
# [15] = test system: MOLT-4; assay: Cytotoxicity against human MOLT4 cells assessed as cell growth level at 10 uM after 48 hrs by sulforhodamine B assay
# [16] = test system: SK-MEL-28; assay: Cytotoxicity against human SK-MEL-28 cells after 48 hrs by sulforhodamine B assay; conditions: SK-MEL-28, 48 h
# [17] = test system: 786-0; assay: Cytotoxicity against human 786-0 cells assessed as cell growth level at 10 uM after 48 hrs by sulforhodamine B assay
# [18] = test system: RXF 393; assay: Cytotoxicity against human RXF393 cells assessed as cell growth level at 100 nM after 48 hrs by sulforhodamine B assay
# [19] = test system: NCI-H23; assay: Cytotoxicity against human NCI-H23 cells assessed as cell growth level at 100 uM after 48 hrs by sulforhodamine B assay
# [20] = test system: NCI-H522; assay: Cytotoxicity against human NCI-H522 cells assessed as cell growth level at 10 uM after 48 hrs by sulforhodamine B assay
# [21] = test system: OVCAR-4; assay: Cytotoxicity against human OVCAR4 cells assessed as cell growth level at 1 uM after 48 hrs by sulforhodamine B assay
# [22] = test system: MOLT-4; assay: Cytotoxicity against human MOLT4 cells assessed as cell growth level at 100 uM after 48 hrs by sulforhodamine B assay
# [23] = test system: HL-60(TB); assay: Cytotoxicity against human HL-60(TB) cells assessed as cell growth level at 10 nM after 48 hrs by sulforhodamine B assay
# [24] = test system: MDA-MB-468; assay: Cytotoxicity against human MDA-MB-468 cells assessed as cell growth level at 1 uM after 48 hrs by sulforhodamine B assay
# [25] = test system: A549; assay: Cytotoxicity against human A549/ATCC cells assessed as cell growth level at 10 uM after 48 hrs by sulforhodamine B assay
# [26] = test system: RXF 393; assay: Cytotoxicity against human RXF393 cells after 48 hrs by sulforhodamine B assay; conditions: RXF 393, 48 h
# [27] = test system: SW-620; assay: Cytotoxicity against human SW620 cells assessed as cell growth level at 100 uM after 48 hrs by sulforhodamine B assay
# [28] = test system: SW-620; assay: Cytotoxicity against human SW620 cells assessed as cell growth level at 100 nM after 48 hrs by sulforhodamine B assay
# [29] = Cytotoxicity against human Hs 578T cells after 48 hrs by sulforhodamine B assay
# [30] = test system: MOLT-4; assay: Cytotoxicity against human MOLT4 cells assessed as cell growth level at 100 nM after 48 hrs by sulforhodamine B assay
# [31] = test system: OVCAR-3; assay: Cytotoxicity against human OVCAR3 cells assessed as cell growth level at 10 uM after 48 hrs by sulforhodamine B assay
# [32] = test system: DU-145; assay: Cytotoxicity against human DU145 cells after 48 hrs by sulforhodamine B assay; conditions: DU-145, 48 h
# [33] = test system: LOX IMVI; assay: Cytotoxicity against human LOXIMVI cells assessed as cell growth level at 10 nM after 48 hrs by sulforhodamine B assay
# [34] = test system: A549; assay: Cytotoxicity against human A549/ATCC cells assessed as cell growth level at 1 uM after 48 hrs by sulforhodamine B assay
# [35] = test system: SNB-19; assay: Cytotoxicity against human SNB19 cells after 48 hrs by sulforhodamine B assay; conditions: SNB-19, 48 h
# [36] = test system: IGROV-1; assay: Cytotoxicity against human IGROV1 cells assessed as cell growth level at 100 nM after 48 hrs by sulforhodamine B assay
# [37] = test system: 786-0; assay: Cytotoxicity against human 786-0 cells assessed as cell growth level at 100 nM after 48 hrs by sulforhodamine B assay
# [38] = test system: A549; assay: Cytotoxicity against human A549/ATCC cells after 48 hrs by sulforhodamine B assay; conditions: A549, 48 h
# [39] = read-out: LC50 (the source's name)
# [40] = read-out: pLC50 (the source's name) (converted)
compound,measurement,setting,value
O=c1oc2ccccc2cc1-c1csc(N/N=C/c2c[nH]c3ccccc23)n1,Activity,[1],2.39%
same,Activity,[2],-23%
same,Activity,[3],0.26%
same,Activity,[4],96%
same,Activity,[5],22.44%
same,Activity,[6],-24%
same,Activity,[7],95%
same,Activity,[8],84%
same,GI50,[9]; read-out: GI50,2.19 µM
same,CC50,[9]; [39],70.9 µM
same,TGI,[9]; read-out: TGI,5.24 µM
same,GI50,[9]; read-out: pGI50 (converted),2.19 µM
same,CC50,[9]; [40],70.8 µM
same,TGI,[9]; read-out: pTGI,5.25 µM
same,Activity,[10],97%
same,Activity,[11],20%
same,Activity,[12],95%
same,Activity,[13],83%
same,Activity,[14],-27%
same,Activity,[15],-32.32%
same,GI50,[16]; read-out: GI50,3.96 µM
same,CC50,[16]; [39],> 100 µM
same,TGI,[16]; read-out: TGI,96.9 µM
same,GI50,[16]; read-out: pGI50 (converted),3.98 µM
same,CC50,[16]; [40],> 100 µM
same,TGI,[16]; read-out: pTGI (converted),97.7 µM
same,Activity,[17],-53.65%
same,Activity,[18],93%
same,Activity,[19],-17%
same,Activity,[20],-77.8%
same,Activity,[21],85%
same,Activity,[22],-40%
same,Activity,[23],92%
same,Activity,[24],72%
same,Activity,[25],-30.98%
same,GI50,[26]; read-out: GI50,1.97 µM
same,CC50,[26]; [39],33.9 µM
same,TGI,[26]; read-out: TGI,4.77 µM
same,GI50,[26]; read-out: pGI50 (converted),1.95 µM
same,CC50,[26]; [40],33.9 µM
same,TGI,[26]; read-out: pTGI (converted),4.79 µM
same,Activity,[27],-7%
same,Activity,[28],95%
same,GI50,[29]; read-out: GI50,3.2 µM
same,CC50,[29]; [39],> 100 µM
same,TGI,[29]; read-out: TGI,58.9 µM
same,GI50,[29]; read-out: pGI50 (converted),3.16 µM
same,CC50,[29]; [40],> 100 µM
same,TGI,[29]; read-out: pTGI (converted),58.9 µM
same,Activity,[30],97%
same,Activity,[31],-80.31%
same,GI50,[32]; read-out: GI50,1.8 µM
same,CC50,[32]; [39],> 100 µM
same,TGI,[32]; read-out: TGI,4.27 µM
same,GI50,[32]; read-out: pGI50 (converted),1.82 µM
same,CC50,[32]; [40],> 100 µM
same,TGI,[32]; read-out: pTGI (converted),4.27 µM
same,Activity,[33],91%
same,Activity,[34],68%
same,GI50,[35]; read-out: GI50,3.39 µM
same,CC50,[35]; [39],> 100 µM
same,TGI,[35]; read-out: TGI,62.1 µM
same,GI50,[35]; read-out: pGI50 (converted),3.39 µM
same,CC50,[35]; [40],> 100 µM
same,TGI,[35]; read-out: pTGI (converted),61.7 µM
same,Activity,[36],107%
same,Activity,[37],82%
same,GI50,[38]; read-out: GI50,1.54 µM
same,CC50,[38]; [39],> 100 µM
same,TGI,[38]; read-out: TGI,5.3 µM
same,GI50,[38]; read-out: pGI50 (converted),1.55 µM
same,CC50,[38]; [40],> 100 µM
same,TGI,[38]; read-out: pTGI,5.25 µM
